Measurements published in PubChem BioAssay (NCI).
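96-well plates; 48 h exposure; 5 concentrations. Endpoints by linear interpolation between flanking doses. Not reached: highest tested concentration assigned. Here, GI50 denotes the concentration required for 50% inhibition of growth. TGI: concentration producing complete growth inhibition.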

Tests used:
Test in all cases: DTP human tumour cell line panel, 48 h
[1] = test system: MALME-3M melanoma
[2] = test system: HCC-2998 colon
[3] = test system: A549 NSCLC
[4] = test system: CAKI-1 renal
[5] = test system: RXF 393 renal
[6] = test system: MDA-MB-231 breast
[7] = test system: 786-0 renal
[8] = test system: MDA-MB-435
[9] = test system: SR leukemia
[10] = test system: SF-295 CNS

SMILES | GI50 [1] [µM] | TGI [1] [µM] | GI50 [2] [µM] | TGI [2] [µM] | GI50 [3] [µM] | TGI [3] [µM] | GI50 [4] [µM] | TGI [4] [µM] | GI50 [5] [µM] | TGI [5] [µM] | GI50 [6] [µM] | TGI [6] [µM] | GI50 [7] [µM] | TGI [7] [µM] | GI50 [8] [µM] | TGI [8] [µM] | GI50 [9] [µM] | TGI [9] [µM] | GI50 [10] [µM] | TGI [10] [µM]
COc1cc(OC)c2cc(C(=O)O)c(=O)oc2c1 | > 100 | > 100 | > 100 | > 100 | > 100 | > 100 | 61.4 | > 100 | > 100 | > 100 | > 100 | > 100 | > 95.4 | > 100 | > 100 | > 100 | > 100 | > 100 | 42.2 | > 100
Cc1cc(O)ccc1O | 15.8 | 31.1 | 73.6 | > 100 | > 100 | > 100 | 20.7 | 57.4 | 15.5 | 29.1 | 11.4 | 23.6 | 21.2 | 75.8 | 17.8 | 36.6 | 19.4 | 76.6 | 34.9 | > 100
Cn1ccnc1C(=O)/C=C/c1ccc(C(=O)Nc2ccccc2O)cc1 | 1.63 | 3.81 | 2.29 | 4.26 | 3.03 | 13.6 | 1.65 | 4.03 | 1.62 | 3.41 | 3.26 | 12.3 | 1.98 | 4.64 | 2.22 | 4.85 | 0.307 | 6.55 | 3.53 | 12.1
COc1cc(C2CC(c3ccc(Nc4ccnc5cc(Cl)ccc45)cc3)=NN2C=O)cc(OC)c1OC (stereo not given) | 3.2 | 8.32 | 5.52 | > 100 | 6.9 | > 100 | 5.47 | 26.5 | 2.22 | 8.01 | 4.39 | 54 | 2.31 | 4.8 | 2.1 | 5.4 | 2.58 | 6.49 | 5.63 | 27.7
O=C(Nc1cccc([N+](=O)[O-])c1)c1ccc2ccccc2c1O | 1.58 | 6.28 | 5.01 | > 100 | 6.87 | > 100 | 2.48 | > 38.4 | 3.37 | > 35.4 | 22.2 | > 81.9 | 4.46 | > 100 | 3.47 | > 100 | 3.94 | > 29.1 | 3.47 | > 82.8
Cc1cc(NCCCCNc2ccnc3cc(Cl)ccc23)nc(Nc2ccc(C(=O)N3CCCC3)cc2)n1 | 1.89 | 4.17 | 2.99 | 8.36 | 3.29 | 10.7 | 2.06 | 5.6 | 1.47 | 3.08 | 2.14 | 5.12 | 1.57 | 3.02 | 1.79 | 3.35 | 0.267 | 1.37 | 1.78 | 3.64
Oc1ccc2ccccc2c1C(c1ccc(Cl)cc1)c1c(O)ccc2ccccc12 | – | 6.71 | – | 6.34 | – | 10.8 | – | 9.08 | – | 8.28 | – | 9.24 | – | 12.4 | – | 9.49 | – | > 25.7 | – | 12.7
